{"source": "patent US9855270B2", "about": "“Methods and compositions for modulating estrogen receptor mutants” (priority 2014, dated 2018)", "tested_on": "mutant ERα", "conditions": "24 hr; estrogen-depleted medium containing 100 ng/ml Dox; absence of E2"}
{"smiles": "CC/C(=C(\\c1ccccc1)c1ccc(OCCN(C)C)cc1)c1ccccc1", "note": "[tamoxifen]", "values": [{"measurement": "mutant ERα degradation", "value": "not"}]}
